“And” between values parts separate entries of the source, which are not always exact repeats. Equal values may be shown once.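 Tested at 5 concentrations; 48 h exposure; 96-well plates; endpoints linearly interpolated, else capped at highest concentration. Abbreviation: GI50, concentration required for 50% inhibition of growth. TGI is the concentration that stops growth completely.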
How the values were obtained:
Experiment in all cases: growth of human tumour cells (NCI), 48 h
OVCAR-3 ovarian = system: OVCAR-3 ovarian
PC-3 prostate = system: PC-3 prostate
SK-MEL-2 melanoma = system: SK-MEL-2 melanoma
SNB-75 CNS = system: SNB-75 CNS
UO-31 renal = system: UO-31 renal
A549 NSCLC = system: A549 NSCLC
OVCAR-5 ovarian = system: OVCAR-5 ovarian
NCI-H226 lung = system: NCI-H226 lung
HS 578T breast = system: HS 578T breast
HCT-15 colon = system: HCT-15 colon

In the case of `C=C1C(=O)O[C@H]2[C@H](OC(C)=O)[C@@H](C)CCCC3(C)OC3CCC3(CO3)[C@H](O)C[C@@H]12` (stereo not given in full), the GI50 (OVCAR-3 ovarian) is reported as 3.62 µM, the TGI (OVCAR-3 ovarian) is reported as 18.1 µM and the GI50 (PC-3 prostate) is reported as 4.4 µM. The TGI (PC-3 prostate) was 18 µM, the GI50 (SK-MEL-2 melanoma) was 26.3 µM and the TGI (SK-MEL-2 melanoma) was > 100 µM. For the same compound, the GI50 (SNB-75 CNS) was 47 µM, the TGI (SNB-75 CNS) was > 100 µM and the GI50 (UO-31 renal) was 14.3 µM. It also gave a TGI (UO-31 renal) of 45 µM, a GI50 (A549 NSCLC) of 19.8 µM and a TGI (A549 NSCLC) of 74.8 µM. The GI50 (OVCAR-5 ovarian) was 2.38 µM, the TGI (OVCAR-5 ovarian) was 12 µM and the GI50 (NCI-H226 lung) was 10.9 µM. It also gave a TGI (NCI-H226 lung) of 31.7 µM, a GI50 (HS 578T breast) of 11.8 µM and a TGI (HS 578T breast) of 43.4 µM. For the same compound, the GI50 (HCT-15 colon) was 10.2 µM and the TGI (HCT-15 colon) was 21.8 µM.

`COC(=O)c1cc2oc(/C=C3/SC(=S)N(N)C3=O)cc2n1Cc1ccccc1` was tested, and the GI50 (OVCAR-3 ovarian) was 2.17 µM, the TGI (OVCAR-3 ovarian) was 6.73 µM and the GI50 (PC-3 prostate) was 9.61 µM. The TGI (PC-3 prostate) was > 31.9 µM, the GI50 (SK-MEL-2 melanoma) was 6.82 µM and the TGI (SK-MEL-2 melanoma) was 18.7 µM. For the same compound, the GI50 (SNB-75 CNS) was 0.887 µM, the TGI (SNB-75 CNS) was 11.3 µM and the GI50 (UO-31 renal) was 3.6 µM. For the same compound, the TGI (UO-31 renal) was 10.6 µM, the GI50 (A549 NSCLC) was 5.12 µM and the TGI (A549 NSCLC) was 33.1 µM. It also gave a GI50 (OVCAR-5 ovarian) of 4.65 µM, a TGI (OVCAR-5 ovarian) of 20.7 µM and a GI50 (NCI-H226 lung) of 13.5 µM. For the same compound, the TGI (NCI-H226 lung) was 26.8 µM, the GI50 (HS 578T breast) was 0.699 µM and the TGI (HS 578T breast) was 3.5 µM. For the same compound, the GI50 (HCT-15 colon) was 7.65 µM and the TGI (HCT-15 colon) was > 29.9 µM.

`CCc1cnn2c(NCc3ccc[n+]([O-])c3)cc(N3CCCC[C@H]3CCO)nc12` was tested, and the GI50 (OVCAR-3 ovarian) was 0.00327 µM, the TGI (OVCAR-3 ovarian) was > 10 µM and the GI50 (PC-3 prostate) was < 0.0132 µM and 0.00762 µM. The TGI (PC-3 prostate) was 0.0792 µM and 0.111 µM, the GI50 (SK-MEL-2 melanoma) was < 0.01 µM and 0.00315 µM and the TGI (SK-MEL-2 melanoma) was 0.0237 µM and 0.0107 µM. For the same compound, the GI50 (SNB-75 CNS) was < 0.01 µM and 0.00174 µM, the TGI (SNB-75 CNS) was < 0.0145 µM and 0.00437 µM and the GI50 (UO-31 renal) was 0.0201 µM and 0.0228 µM. The TGI (UO-31 renal) was 0.0692 µM, the GI50 (A549 NSCLC) was < 0.0163 µM and 0.00853 µM and the TGI (A549 NSCLC) was > 10 µM. The GI50 (OVCAR-5 ovarian) was < 0.01 µM and 0.00492 µM, the TGI (OVCAR-5 ovarian) was > 35.7 µM and the GI50 (NCI-H226 lung) was < 0.0129 µM and 0.00689 µM. The TGI (NCI-H226 lung) was 0.0395 µM, the GI50 (HS 578T breast) was < 0.01 µM and 0.00236 µM and the TGI (HS 578T breast) was 0.00805 µM. For the same compound, the GI50 (HCT-15 colon) was 0.0351 µM and 0.0253 µM and the TGI (HCT-15 colon) was > 35 µM.

With `CC(C)(c1ccccc1)c1cc(O)c(C(C)(C)c2ccccc2)cc1O` the GI50 (OVCAR-3 ovarian) was 2.53 µM, the TGI (OVCAR-3 ovarian) was 8 µM and the GI50 (PC-3 prostate) was 1.96 µM. The TGI (PC-3 prostate) was 10.9 µM, the GI50 (SK-MEL-2 melanoma) was 2.96 µM and the TGI (SK-MEL-2 melanoma) was 13.9 µM. It also gave a GI50 (SNB-75 CNS) of 1.51 µM, a TGI (SNB-75 CNS) of 11.5 µM and a GI50 (UO-31 renal) of 2.1 µM. It also gave a TGI (UO-31 renal) of 11.3 µM, a GI50 (A549 NSCLC) of 2.77 µM and a TGI (A549 NSCLC) of 13.4 µM. The GI50 (OVCAR-5 ovarian) was 2.63 µM, the TGI (OVCAR-5 ovarian) was 8.58 µM and the GI50 (NCI-H226 lung) was 1.09 µM. For the same compound, the TGI (NCI-H226 lung) was 16 µM, the GI50 (HS 578T breast) was 3.19 µM and the TGI (HS 578T breast) was 19.6 µM. It also gave a GI50 (HCT-15 colon) of 2.35 µM and a TGI (HCT-15 colon) of 10.1 µM.

In the case of `Cc1ccc(C=C2C(Cl)=C(Cl)C(Cl)=C2Cl)cc1`, the GI50 (OVCAR-3 ovarian) is reported as 0.361 µM, the TGI (OVCAR-3 ovarian) is reported as 1.06 µM and the GI50 (PC-3 prostate) is reported as 0.743 µM. The TGI (PC-3 prostate) was 6.3 µM, the GI50 (SK-MEL-2 melanoma) was 1.9 µM and the TGI (SK-MEL-2 melanoma) was 4.87 µM. For the same compound, the GI50 (SNB-75 CNS) was 1.16 µM, the TGI (SNB-75 CNS) was 2.44 µM and the GI50 (UO-31 renal) was 0.757 µM. It also gave a TGI (UO-31 renal) of 2.18 µM, a GI50 (A549 NSCLC) of 1.7 µM and a TGI (A549 NSCLC) of 3.84 µM. It also gave a GI50 (OVCAR-5 ovarian) of 0.978 µM, a TGI (OVCAR-5 ovarian) of 2.49 µM and a GI50 (NCI-H226 lung) of 1.49 µM. It also gave a TGI (NCI-H226 lung) of 3.22 µM, a GI50 (HS 578T breast) of 0.636 µM and a TGI (HS 578T breast) of 7.56 µM. It also gave a GI50 (HCT-15 colon) of 1.33 µM and a TGI (HCT-15 colon) of 4.88 µM.

In the case of `C#Cc1cccc(Nc2ncnc3ccc(OCCCCNCCS(C)(=O)=O)cc23)c1`, the GI50 (OVCAR-3 ovarian) is reported as 6.5 µM, the TGI (OVCAR-3 ovarian) is reported as > 23.6 µM and the GI50 (PC-3 prostate) is reported as 9.55 µM. For the same compound, the TGI (PC-3 prostate) was > 25 µM, the GI50 (SK-MEL-2 melanoma) was 7.75 µM and the TGI (SK-MEL-2 melanoma) was 17.8 µM. For the same compound, the GI50 (SNB-75 CNS) was 10.7 µM, the TGI (SNB-75 CNS) was > 25 µM and the GI50 (UO-31 renal) was 3.31 µM. The TGI (UO-31 renal) was > 15.4 µM, the GI50 (A549 NSCLC) was 6.43 µM and the TGI (A549 NSCLC) was > 25 µM. The GI50 (OVCAR-5 ovarian) was 4.93 µM, the TGI (OVCAR-5 ovarian) was > 25 µM and the GI50 (NCI-H226 lung) was > 19.6 µM. The TGI (NCI-H226 lung) was > 25 µM, the GI50 (HS 578T breast) was 8.66 µM and the TGI (HS 578T breast) was > 23.2 µM. The GI50 (HCT-15 colon) was 7.41 µM and the TGI (HCT-15 colon) was > 25 µM.

`COc1ccc(NC2=C(I)C(=O)c3ncccc3C2=O)cc1` was tested, and the GI50 (OVCAR-3 ovarian) was 0.27 µM, the TGI (OVCAR-3 ovarian) was 1.13 µM and the GI50 (PC-3 prostate) was 0.972 µM. It also gave a TGI (PC-3 prostate) of 7.99 µM, a GI50 (SK-MEL-2 melanoma) of 1.49 µM and a TGI (SK-MEL-2 melanoma) of 3.18 µM. It also gave a GI50 (SNB-75 CNS) of 1.4 µM, a TGI (SNB-75 CNS) of 2.77 µM and a GI50 (UO-31 renal) of 0.85 µM. For the same compound, the TGI (UO-31 renal) was 2.21 µM, the GI50 (A549 NSCLC) was 1.84 µM and the TGI (A549 NSCLC) was 3.91 µM. The GI50 (OVCAR-5 ovarian) was 1.69 µM, the TGI (OVCAR-5 ovarian) was 3.15 µM and the GI50 (NCI-H226 lung) was 1.42 µM. For the same compound, the TGI (NCI-H226 lung) was 2.83 µM, the GI50 (HS 578T breast) was 0.834 µM and the TGI (HS 578T breast) was 5.04 µM. It also gave a GI50 (HCT-15 colon) of 0.516 µM and a TGI (HCT-15 colon) of 2.42 µM.

For `C/C(=N\OCC(O)CNCCSCc1ccccc1)c1ccccc1Cl` (stereo not given), the TGI (OVCAR-3 ovarian) was 34.6 µM, the TGI (PC-3 prostate) was 36.2 µM and the TGI (SK-MEL-2 melanoma) was 62.7 µM. For the same compound, the TGI (SNB-75 CNS) was 39.9 µM, the TGI (UO-31 renal) was 32.4 µM and the TGI (A549 NSCLC) was 45.6 µM. For the same compound, the TGI (OVCAR-5 ovarian) was 37.9 µM, the TGI (NCI-H226 lung) was 35.4 µM and the TGI (HS 578T breast) was 89.5 µM. The TGI (HCT-15 colon) was 41.1 µM.

`COc1c(/C=C/C=O)cc2c(c1OC)OCO2` was tested, and the TGI (OVCAR-3 ovarian) was > 100 µM, the TGI (PC-3 prostate) was > 100 µM and the TGI (SK-MEL-2 melanoma) was 57.4 µM. The TGI (SNB-75 CNS) was > 100 µM, the TGI (UO-31 renal) was > 100 µM and the TGI (A549 NSCLC) was > 100 µM. The TGI (OVCAR-5 ovarian) was > 100 µM, the TGI (NCI-H226 lung) was 70 µM and the TGI (HS 578T breast) was > 100 µM. The TGI (HCT-15 colon) was 40.2 µM.

Compound `CCCCCCn1c(SC)nc(COC(=O)NC)c1COC(=O)NC` has a TGI (OVCAR-3 ovarian) of 33.5 µM, a TGI (PC-3 prostate) of 31.8 µM and a TGI (SK-MEL-2 melanoma) of 49.9 µM. The TGI (SNB-75 CNS) was 27.8 µM, the TGI (UO-31 renal) was 31.3 µM and the TGI (A549 NSCLC) was 31.5 µM. For the same compound, the TGI (OVCAR-5 ovarian) was 34.6 µM, the TGI (NCI-H226 lung) was 33.3 µM and the TGI (HS 578T breast) was 40.3 µM. The TGI (HCT-15 colon) was > 100 µM.

`COC1=C(C)C(=O)c2c(c(CCCl)c3n2CCC3OC(C)=O)C1=O` (stereo not given) gave a GI50 (OVCAR-3 ovarian) of 1.48 µM, a TGI (OVCAR-3 ovarian) of 5.43 µM and a GI50 (PC-3 prostate) of 0.749 µM. The TGI (PC-3 prostate) was 14.3 µM, the GI50 (SK-MEL-2 melanoma) was 0.319 µM and the TGI (SK-MEL-2 melanoma) was 1 µM. It also gave a GI50 (SNB-75 CNS) of 0.141 µM, a TGI (SNB-75 CNS) of 0.376 µM and a GI50 (UO-31 renal) of 0.241 µM. It also gave a TGI (UO-31 renal) of 0.739 µM, a GI50 (A549 NSCLC) of 0.165 µM and a TGI (A549 NSCLC) of 0.913 µM. For the same compound, the GI50 (OVCAR-5 ovarian) was 0.325 µM, the TGI (OVCAR-5 ovarian) was 9.32 µM and the GI50 (NCI-H226 lung) was 0.246 µM. For the same compound, the TGI (NCI-H226 lung) was 1.03 µM, the GI50 (HS 578T breast) was 0.417 µM and the TGI (HS 578T breast) was 3.62 µM. For the same compound, the GI50 (HCT-15 colon) was 0.155 µM and the TGI (HCT-15 colon) was 2.35 µM.

— PubChem BioAssay (NCI)
